Data from patent US10526276B2, “Dream neuronal calcium sensor-modulating compounds, and therapeutic uses thereof” (CONSEJO SUPERIOR DE INVESTIGACIONES CIENTÍFICAS, priority 2014, dated 2020).

Key:
Kv4.3+DREAM channels = target: T1, Kv4.3+DREAM channels (Homo sapiens, UniProt Q9UK17+Q9Y2W7); assay: Patch-clamp in CHO cells transiently transfected with Kv4.3 in the presence of DREAM; format: cell-based; conditions: 100 nM; for inhibitory effect of the Kv4.3+DREAM current (% decrease of the amount of charge passing through the membrane): CHO cells, FIG. 1B
T1 construct: expressed in transfected cells; host or cells: CHO cells, transient transfection
T1 sequence (Q9Y2W7 1-256): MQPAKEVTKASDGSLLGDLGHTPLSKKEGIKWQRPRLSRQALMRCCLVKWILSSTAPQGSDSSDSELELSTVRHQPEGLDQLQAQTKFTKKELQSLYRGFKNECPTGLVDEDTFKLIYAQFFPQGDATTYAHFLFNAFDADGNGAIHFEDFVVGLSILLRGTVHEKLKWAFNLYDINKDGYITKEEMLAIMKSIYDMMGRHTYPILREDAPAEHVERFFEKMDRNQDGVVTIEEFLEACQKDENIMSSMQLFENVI
T1 sequence (Q9UK17 1-655): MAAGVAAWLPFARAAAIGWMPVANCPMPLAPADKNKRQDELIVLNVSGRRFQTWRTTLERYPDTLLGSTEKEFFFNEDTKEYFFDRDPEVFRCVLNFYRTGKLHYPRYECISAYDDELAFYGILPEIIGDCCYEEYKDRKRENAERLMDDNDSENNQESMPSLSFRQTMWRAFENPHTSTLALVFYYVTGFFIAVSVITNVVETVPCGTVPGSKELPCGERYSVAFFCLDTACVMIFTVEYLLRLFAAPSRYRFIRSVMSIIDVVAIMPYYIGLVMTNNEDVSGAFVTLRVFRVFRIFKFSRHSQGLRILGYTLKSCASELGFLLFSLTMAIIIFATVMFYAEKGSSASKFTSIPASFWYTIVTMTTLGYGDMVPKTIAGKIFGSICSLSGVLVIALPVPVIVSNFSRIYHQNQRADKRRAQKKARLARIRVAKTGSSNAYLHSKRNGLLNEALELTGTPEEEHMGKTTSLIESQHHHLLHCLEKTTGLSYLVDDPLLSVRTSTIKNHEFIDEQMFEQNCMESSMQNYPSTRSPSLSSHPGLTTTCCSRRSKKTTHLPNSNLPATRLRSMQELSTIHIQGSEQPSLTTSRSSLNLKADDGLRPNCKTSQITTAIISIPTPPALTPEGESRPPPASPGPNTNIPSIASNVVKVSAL
Description: (§1) The new compounds synthesised according to this invention have been evaluated in vitro in voltage-binding assays in CHO cells transiently transfected with cDNA encoding Kv4.3 only or Kv4.3 in the presence of DREAM (Kv4.3+DREAM) using the patch-clamp technique. […] For some of the compounds evaluated, this effect is selective and is only observed in the presence of the DREAM channel modulator.

Kv4.3 channels = target: T2, Kv4.3 channels (Homo sapiens, UniProt Q9UK17); assay: Patch-clamp in CHO cells transiently transfected with Kv4.3 only; format: cell-based; conditions: 100 nM, FIG. 1B
T2 construct: expressed in transfected cells; host or cells: CHO cells, transient transfection
T2 sequence (Q9UK17 1-655): T1 sequence (Q9UK17 1-655)
Description: as §1

[1] = test system: STHdh^Q111/Q111 cells infected with lentivirus expressing the complete human DREAM protein (Q111DR); assay: Neuroprotection against staurosporine-mediated apoptosis (caspase-3 activation) in Q111DR cells; format: cell-based, mouse; conditions: compound 100 nM, 1 h pre-incubation; staurosporine 1 μM for 5 h; compared with repaglinide (RP); FIG. 3
Method: FIG. 3. Analysis of the neuroprotective effect of compounds 9, 16, 22, 23 and 62 (100 nM) against the activation of caspase-3 mediated by staurosporine in ^Q111/Q111 cells infected with lentivirus expressing the complete human DREAM protein. The caspase-3 activity was measured after 1 h of pre-incubation of the compounds (100 nM) and subsequent exposure for 5 h of staurosporine at 1 μM. RP: Repaniglida.
(§2) In an immortalized cell line of mouse striatum infected with lentivirus STHdh^Q111/Q111 expressing the complete human DREAM protein (Q111DR), the neuroprotective effect of the compounds was tested against necrosis mediated by H2O2 and apoptosis mediated by staurosporine.

[2] = test system: STHdh^Q111/Q111 cells infected with lentivirus expressing the complete human DREAM protein (Q111DR); assay: Neuroprotection against H2O2-mediated necrosis (LDH release) in Q111DR cells; format: cell-based, mouse; conditions: compound 100 nM; H2O2 0.66 mM; FIG. 2
Method: FIG. 2. […] RP: Repaniglida.
as §2

Compound	inhibitory effect of the Kv4.3+DREAM current (% decrease of the amount of charge passing through the membrane) (Kv4.3+DREAM channels)	inhibitory effect of the Kv4.3 current in the absence of DREAM (% decrease of the amount of charge passing through the membrane) (Kv4.3 channels)	activation of caspase-3 mediated by staurosporine, neuroprotective effect [1]	selectivity of Kv4.3 current inhibition for the presence of DREAM (Kv4.3+DREAM channels; Kv4.3+DREAM versus Kv4.3 only)	release of LDH (lactate dehydrogenase) mediated by H2O2, neuroprotective effect [2]
CCCCc1ccc(-c2ccc(C(=O)O)c(NC(=O)Cc3ccc(Cl)c(Cl)c3)c2)cc1 [Compound 35, 2-[2-(3,4-dichlorophenyl)acetylamino]-4-(4′-n-butylphenyl)benzoic acid]	only inhibit the Kv4.3 current in the presence of DREAM	only inhibit the Kv4.3 current in the presence of DREAM	–	–	–
O=C(Cc1ccc(Cl)c(Cl)c1)Nc1ccc(-c2ccccc2)cc1C(=O)O [Compound 42, 2-[2-(3,4-dichlorophenyl)acetylamino]-5-phenylbenzoic acid]	only inhibit the Kv4.3 current in the presence of DREAM	only inhibit the Kv4.3 current in the presence of DREAM	–	–	–
COC(=O)[C@@H](Cc1cn(C(c2ccccc2)(c2ccccc2)c2ccccc2)cn1)NC(=O)Cc1ccc(Cl)c(Cl)c1 [Compound 62, (2R)-2-[2-(3,4-dichlorophenyl)acetylamino]-3-(1-trityl-1H-imidazol-4-yl)methyl propanoate]	similarly inhibits the current generated by the Kv4.3 channels to that of the Kv4.3 channels in the presence of DREAM	similarly inhibits the current generated by the Kv4.3 channels	lowest activation of caspase-3	has no selectivity	lowest LDH release
